According to patent US20140243375A1, “ISOXAZOLINE DERIVATIVES AS INSECTICIDAL COMPOUNDS” (Syngenta Participations AG, priority 2011, published 2014):

Assays:
Type in all cases: in vivo
Diabrotica balteata = Diabrotica balteata (corn root worm) L2 larvae test on artificial diet; conditions: 120 h, application rate 200 ppm (concentration in well 18 ppm), larval mortality and growth regulation after 5 days
Method: (§1) This Example illustrates the pesticidal/insecticidal properties of compounds of formula (I). Tests were performed as follows: Diabrotica balteata (Corn Root Worm): A 24-well microtiter plate (MTP) with artificial diet was treated with test solutions at an application rate of 200 ppm (concentration in well 18 ppm) by pipetting. After drying, the MTP's were infested with L2 larvae (6-10 per well). After an incubation period of 5 days, samples were checked for larval mortality and growth regulation.

Tetranychus urticae = Tetranychus urticae (two-spotted spider mite) bean leaf disc spray test; conditions: foliar, 192 h, application rate 200 ppm, sprayed bean leaf discs, mixed ages, egg, larval and adult mortality 8 days later
Method: This Example illustrates the pesticidal/insecticidal properties of compounds of formula (I). Tests were performed as follows: Tetranychus urticae (Two-Spotted Spider Mite): Bean leaf discs on agar in 24-well microtiter plates were sprayed with test solutions at an application rate of 200 ppm. After drying, the leaf discs are infested with mite populations of mixed ages. 8 days later, discs are checked for egg mortality, larval mortality, and adult mortality.

Heliothis virescens = Heliothis virescens (tobacco budworm) egg test on artificial diet; conditions: 96 h, application rate 200 ppm (concentration in well 18 ppm), eggs on artificial diet, egg mortality, larval mortality, growth regulation after 4 days
Method: This Example illustrates the pesticidal/insecticidal properties of compounds of formula (I). Tests were performed as follows: Heliothis virescens (Tobacco Budworm): Eggs (0-24 h old) were placed in 24-well microtiter plate on artificial diet and treated with test solutions at an application rate of 200 ppm (concentration in well 18 ppm) by pipetting. After an incubation period of 4 days, samples were checked for egg mortality, larval mortality, and growth regulation.

Spodoptera littoralis = Spodoptera littoralis (Egyptian cotton leafworm) cotton leaf disc spray test; conditions: foliar, 72 h, application rate 200 ppm, sprayed cotton leaf discs, mortality, feeding behavior, growth regulation 3 days after treatment
Method: This Example illustrates the pesticidal/insecticidal properties of compounds of formula (I). Tests were performed as follows: Spodoptera littoralis (Egyptian Cotton Leafworm): Cotton leaf discs were placed on agar in a 24-well microtiter plate and sprayed with test solutions at an application rate of 200 ppm. After drying, the leaf discs were infested with […]. The samples were checked for mortality, feeding behavior, and growth regulation 3 days after treatment (DAT).

Plutella xylostella = Plutella xylostella (diamond back moth) L2 larvae test on artificial diet; conditions: 144 h, application rate 200 ppm (concentration in well 18 ppm), larval mortality and growth regulation after 6 days
Method: as §1, with “Plutella xylostella (Diamond Back Moth):” for “Diabrotica balteata (Corn Root Worm): A”, “(7-12” for “(6-10”, “6” for “5”

Thrips tabaci = Thrips tabaci (onion thrips) sunflower leaf disc spray test; conditions: foliar, 168 h, application rate 200 ppm, sprayed sunflower leaf discs, mixed ages, mortality after 7 days
Method: This Example illustrates the pesticidal/insecticidal properties of compounds of formula (I). Tests were performed as follows: Thrips Tabaci (Onion Thrips): Sunflower leaf discs were placed on agar in a 24-well microtiter plate and sprayed with test solutions at an application rate of 200 ppm. After drying, the leaf discs were infested with a thrips population of mixed ages. After an incubation period of 7 days, samples were checked for mortality.

Measured: pest or weed control at 200 ppm

Cc1cc(C2=NOC(c3cc(Cl)cc(Cl)c3)(C(F)(F)F)C2)ccc1C(=O)NC1CON(C)C1=O (stereo not drawn) [Compound A01]
≥ 80%: all assays above

CCN1OCC(NC(=O)c2ccc(C3=NOC(c4cc(Cl)c(Cl)c(Cl)c4)(C(F)(F)F)C3)cc2C)C1=O (stereo not drawn) [Compound A02]
≥ 80%: all assays above

CCN1OCC(NC(=O)c2ccc(C3=NOC(c4cc(Cl)c(F)c(Cl)c4)(C(F)(F)F)C3)cc2C)C1=O (stereo not drawn) [Compound A04]
≥ 80%: all assays above

CCN1OCC(NC(=O)c2ccc(C3=NOC(c4cc(Cl)cc(Cl)c4)(C(F)(F)F)C3)cc2C)C1=O (stereo not drawn) [Compound A07]
≥ 80%: all assays above

CCN1OCC(NC(=O)c2ccc(C3=NOC(c4cc(Cl)cc(Br)c4)(C(F)(F)F)C3)cc2C)C1=O (stereo not drawn) [Compound A10]
≥ 80%: all assays above

CCN1OCC(NC(=O)c2ccc(C3=NOC(c4cc(Cl)cc(C(F)(F)F)c4)(C(F)(F)F)C3)cc2C)C1=O (stereo not drawn) [Compound A12]
≥ 80%: all assays above

Cc1cc(C2=NOC(c3cc(Cl)cc(Cl)c3)(C(F)(F)F)C2)ccc1C(=O)NC1CON(CC(F)F)C1=O (stereo not drawn) [Compound A15]
≥ 80%: all assays above

Cc1cc(C2=NOC(c3cc(Cl)c(Cl)c(Cl)c3)(C(F)(F)F)C2)ccc1C(=O)NC1CON(CC(F)(F)F)C1=O (stereo not drawn) [Compound A16]
≥ 80%: all assays above

Cc1cc(C2=NOC(c3cc(Cl)c(F)c(Cl)c3)(C(F)(F)F)C2)ccc1C(=O)NC1CON(CC(F)(F)F)C1=O (stereo not drawn) [Compound A20]
≥ 80%: all assays above

Cc1cc(C2=NOC(c3cc(Cl)cc(Cl)c3)(C(F)(F)F)C2)ccc1C(=O)NC1CON(CC(F)(F)F)C1=O (stereo not drawn) [Compound A22]
≥ 80%: all assays above

Cc1cc(C2=NOC(c3cc(Cl)cc(Br)c3)(C(F)(F)F)C2)ccc1C(=O)NC1CON(CC(F)(F)F)C1=O (stereo not drawn) [Compound A25]
≥ 80%: all assays above
